In EPA's ToxValDB 9.5 (doi:10.2903/j.efsa.2016.4605):

Key:
Tagia sp. = conditions: chronic/long-term; reproduction
Folsomia candida = conditions: chronic/long-term; reproduction
Hypoaspis aculeifer = conditions: chronic/long-term; reproduction
Oncorhynchus mykiss = conditions: for LC50: acute, mortality; for NOEC: chronic/long-term
Mus musculus = conditions: chronic; histopathology: neoplastic
Daphnia magna = conditions: chronic/long-term
Rattus norvegicus = conditions: for LD50: acute, oral, mortality
Apis mellifera = conditions: acute, mortality
Typhlodromus pyri = assay: LR50; higher = less toxic; conditions: not reported; mortality
[1] = duration: 21 days, reproduction

Compound	NOEC (Tagia sp.)	NOEC (Folsomia candida)	NOEC (Hypoaspis aculeifer)	LC50 (Oncorhynchus mykiss; duration: 96 hours)	NOAEL (Mus musculus)	NOEC (Daphnia magna; [1])	LD50 (Rattus norvegicus)	other results
CC1CNC(=O)N1 (centres undefined) [4-Methyl-2-imidazolidinone]	≥ 1000 mg/kg	90 mg/kg	≥ 100 mg/kg	> 100 µg/mL	8 mg/kg-day	100 mg/L		NOEC (Oncorhynchus mykiss; duration: 63 days, growth): 2 mg/L
CC1CNC(=S)N1 (centres undefined) [4-Methylimidazolidine-2-thione]	178 mg/kg	9 mg/kg	≥ 100 mg/kg		0.16 mg/kg-day	3.2 mg/L	795 mg/kg-day	LC50 (Oncorhynchus mykiss): > 100 µg/mL; NOEC (Oncorhynchus mykiss; duration: 28 days, growth): 102 mg/L
CC1CN2C(=S)SSC2=N1 (centres undefined) [6-Methyl-5,6-dihydroimidazo[2,1-C][1,2,4]dithiazole-3-thione]								NOAEL (Rattus norvegicus; short-term, duration: 28 days, neurology): 0.466 mg/kg-day
CC(CNC(=S)[S-])NC(=S)[S-].[Zn+2] (centres undefined) [Propineb]	38.7 mg/kg	39.1 mg/kg	39.1 mg/kg	0.329 µg/mL		0.015 mg/L	> 2000 mg/kg-day	LD50 (Coturnix japonica; acute, oral, mortality): > 5000 mg/kg-day; NOAEL (Coturnix japonica; chronic): 64.7 mg/kg-day; LD50 (Apis mellifera; dermal): > 100 µg/piece; LD50 (Apis mellifera; oral, unspecified): > 100 µg/piece; NOEC (Oncorhynchus mykiss; duration: 28 days, other): > 0.6 mg/L; NOEC (Oncorhynchus mykiss; growth): 0.0823 mg/L; NOEC (Daphnia magna; duration: 35 days, other): 0.48 mg/L; NOAEL (Rattus norvegicus; chronic, M, organ weight): 2.5 mg/kg-day; NOAEL (Rattus norvegicus; developmental, development): 3 mg/kg-day; NOAEL (Rattus norvegicus; reproduction developmental, body weight): 3 mg/kg-day; NOAEL (Rattus norvegicus; subchronic, F, body weight): 9.36 mg/kg-day; LR50 (Typhlodromus pyri): 5.6 g/ha
